The source of these data is patent US7385039B2, “Methods and compositions for regulating imidazoline receptors” (priority 1998, dated 2008).

One assay has as its system SH rats. Description: Mean arterial pressure and heart rate after microinjection into the RVLM of rats. Particulars: SH rats. The assay is classed as in vivo, rat. On the procedure:
Effects of ribotide on mean arterial pressure (MAP) and heart rate (HR). Bilateral I-4-AA-RP microinjections (60 nl, 100 nmol) into the RVLM of SH rats were performed (Emsberger, P. & Haxhiu, M. A. (1997) Am. J. Physiol. 273, R1572-R1579) after the sympatho-excitatory area was confirmed by showing glutamate-induced MAP elevation ≧30 mm Hg. MAP and HR values were measured every 5 min. After each experiment, the injection site was marked by infusion of rhodamine microspheres. Changes were assessed relative to baseline values by two-way repeated measures ANOVA and Dunnett's test. A second group of SH rats (injection controls) received vehicle injections to control for injection effects and for volume artifacts due to multiple injections. Vehicle contained 2 nmol rilmenidine, a sub-threshold dose, far below that known to cause any detectable effect (Gomez, R. E., Emsberger, P., Feinland, G. & Reis, D. J. (1991) Eur. J. Pharmacol. 195, 181-191). In a follow-up study, SH rats (N=6) were given I-4-AA-RP then moxonidine. When used alone, it reduces MAP to normotensive levels (Emsberger, P., Elliott, H. L., Weimann, H.-J., Raap, A., Haxhiu, M. A., Hofferber, E., Low-Kroger, A., Reid, J. L. & Mest, H. J. (1993) Cardiovas. Drug Rev. 11, 411-431).

The next assay has as its system α2-Adrenergic Sites. Description: [125I]p-iodoclonidine competition binding to bovine RVLM membranes, α2-adrenergic sites. The following applies: for Ki: read-out: Ki, α2-Adrenergic Sites (low affinity sites). From the text: Whole bovine brains and adrenal glands were obtained from a local slaughterhouse. Brains were immediately placed on a chilled glass plate, washed with ice-cold Krebs'-Henseleit buffer, and dissected. The rostral medulla was isolated by transecting the brainstem rostrally at the posterior margin of the trapezoid body and caudally 1 cm caudal to the obex. The pia-arachnoid was removed, and the lateral medulla was isolated by a sagittal section through the lateral margin of the pyramids, and then bisected. The ventral half was defined as the ventrolateral medulla (VLM). Brain samples were transported on ice to the laboratory and processed immediately.
Fresh bovine VLM was homogenized by using a polytron (Tekmar Tissuemizer, setting 80 for 2×15 sec) in 20 volumes of ice-cold Hepes-buffered isotonic sucrose (pH brought to 7.4 with Tris base) containing the protease inhibitors (1,10)-phenanthroline (100 μM) and phenylmethylsulfonyl fluoride (50 μM) in order to inhibit degradation of receptor protein. Bovine adrenomedullary cells were homogenized in 15 ml Hepes-buffered isotonic sucrose by 10 strokes in a glass-glass hand-held homogenizer. All three homogenates were centrifuged at 1000×g for 5 min at 4° C. to remove nuclei and debris. The pellets (P1) were resuspended in 20 ml of homogenization buffer, and centrifuged again at 1000×g for 5 min. The combined supernatants were centrifuged at 48,000 g for 18 min at 4° C., and the resulting P2 pellet was resuspended in 10 to 25 volumes of 50 mM Tris-HCl buffer (pH 7.7) containing 5 mM EDTA. After recentrifugation at 48,000 g for 18 min, the resulting membrane pellet was resuspended in Tris-HCl containing 25 mM NaCl, preincubated for 30 min at 25° C., chilled on ice, centrifuged again, resuspended a final time in Tris-HCl alone, centrifuged, flash-frozen, and stored at −70° C. for up to three months.
Radioligand binding assays with [^3H]clonidine or [^125I]p-iodoclonidine for determination of specific membrane binding to VLM and renal medulla imidazoline sites and α2-adrenergic receptors were performed by a modification of methods previously described (Ernsberger P. et al., 1997, J. Hypertension 1997, 15:S9-S23). Membranes were slowly thawed and resuspended in Tris-Hepes buffer (5.0 mM; pH 7.7 at 25° C., containing 0.5 mM EDTA, 0.5 mM EGTA, and 0.5 mM MgCl2) at a concentration of 1 mg protein/ml for the VLM, 4 mg protein/ml for the renal medulla, and 0.2 mg protein/ml for adrenomedullary cells. Assays were conducted in a total volume of 250 μl in polypropylene 96-well plates (Beckman Macrowell), and each well contained 125 μl membrane suspension, 25 μl radioligand, and 100 μl drug or vehicle. Incubations were initiated by the addition of membrane and were carried out for 30 min at 22° C. Nonspecific binding was defined in the presence of 10 μM BDF-6143, an imidazoline adrenergic agent. Specific α2-adrenergic binding was defined by inhibition with (−)epinephrine (0.1 mM). In experiments using catecholamines, all samples contained ascorbic acid in a final concentration of 0.001%. Incubations were terminated by vacuum filtration using a cell harvester (Brandel) equipped with Teflon tubing to reduce absorption of the radioligand over glass fiber filters (Schleicher & Schuell #34) which were preincubated for 4 h at 4° C. in 0.03% polyethylimine to reduce nonspecific binding to the filter. The filters were washed four times with 5 ml ice-cold Tris-HCl, placed in scintillation vials, covered with 4 ml scintillation cocktail (BioSafe II, Research Products International), and counted at 50% efficiency (Beckman LS5801). Protein was assayed by the bicinchoninic acid method.
Data were obtained as dpm and transferred to the Equilibrium Binding Data Analysis (EBDA) program for initial processing; 4 to 10 experiments were analyzed simultaneously by using the LIGAND program for nonlinear curve-fitting. Protein assay data were also analyzed by nonlinear curve-fitting.
Competition binding assays. […]

Where [1] appears, read: With cimetidine (I-sites masked).

Read-outs that look alike come from different tables or passages of the source. A value given as a limit tells only on which side of the number the result lay.

Broadly, the Ki is the equilibrium dissociation constant of an inhibitor or competing ligand from its target. `O=C(O)Cc1cn(C2OC(COP(=O)(O)O)C(O)C2O)cn1` [IAA-RP, 1-(β-D-ribofuranosyl)-imidazole-4-acetic acid 5′ phosphate]: the “rise of MAP over baseline” value with SH rats (100 nmol bilateral microinjection into RVLM) is about 25 mm Hg. Also, the “change of heart rate (HR)” value in the assay with SH rats (100 nmol into RVLM) is recorded as “no significant changes”. In the assay with SH rats (after six 100 nmol doses), the “MAP elevation above baseline” value is given as 20.4±5.6%. Moreover, the figures for the “Percent Sites, α2-Adrenergic Sites” value in the assay with α2-Adrenergic Sites (Control (no masking ligand)), with α2-Adrenergic Sites (setting [1]) and with α2-Adrenergic Sites (With epinephrine (α2Rs masked)) were 29 ± 5%, 100 ± 10% and 14 ± 4%, respectively. Also, the Ki on α2-Adrenergic Sites (Control (no masking ligand)) was found to be 57 ± 33 µM; at α2-Adrenergic Sites (setting [1]) it was 210 ± 32 µM; at α2-Adrenergic Sites (With epinephrine (α2Rs masked)) it was 60 ± 48 µM. The “fold lower affinity of remaining (low affinity) sites versus high affinity component” value in the assay with α2-Adrenergic Sites (no masking ligands) is given as over 300 fold.
